Measured values as given in patent US4277479A, “Tetrazolylalkoxycarbostyril derivatives and pharmaceutical compositions containing them” (Otsuka Pharmaceutical Co., Ltd., priority 1978, dated 1981).
Where two headings read alike, the source gives them in different places.

Assays:
[1] = tested on: rabbit platelet (ADP-induced aggregation); experiment: Platelet aggregation inhibitory effect, ADP-induced aggregation in rabbit platelet; assay type: cell-based; details: Oryctolagus cuniculus, read-out: Inhibition effect on ADP-induced aggregation in rabbit platelet
Text: (§1) The blood sample used for the test is a 1/9 (by volume) mixture of sodium citrate and whole blood collected from rabbit. Said sample is subjected to 10-minute centrifugal separation at 1,000 r.p.m. to obtain a platelet rich plasma (PRP). The thus obtained PRP is separated, and the remaining blood sample is further subjected to 15-minute centrifugal separation at 3,000 r.p.m. to obtain a platelet poor plasma (PPP).
(§2) The number of platelets in the PRP is counted by the Brecher-Clonkite Method, and the PRP is diluted with the PPP to prepare a PRP sample with platelet concentration of 300,000/mm^3 for the adenosine diphosphate (ADP)-induced aggregation test. There is also prepared a PRP sample with platelet concentration of 450,000/mm^3 for the collagen-induced aggregation test.
(§3) 0.6 Ml of said PRP sample is added into 0.01 ml of a solution of a test compound of a predetermined concentration and the mixture is placed in a 37° C. thermostat for one minute. Then 0.07 ml of an ADP or collagen solution is added to the mixture. Transmittance of this mixture is determined and the change of transmittance is recorded by using the aggregometer at stirrer speed of 1,100 r.p.m. […] ADP is adjusted to a concentration of 7.5×10^-5 M, and the collagen solution is prepared by triturating 100 mg of collagen with 5 ml of said buffer and the supernatant is used as collagen inducer. Adenosine and acetylsalicylic acid are used as controls for the ADP-induced aggregation test and the collagen-induced aggregation test, respectively. The platelet aggregation inhibitory effect is measured in terms of percent inhibition with respect to the aggregation rate of the controls. The aggregation rate is calculated from the following formula: [formula] wherein a: transmittance of PRP
(§4) b: transmittance of PRP containing a test compound and an aggregation inducer
(§5) The compounds tested are as follows.

[2] = tested on: rabbit platelet (collagen-induced aggregation); experiment: Platelet aggregation inhibitory effect, collagen-induced aggregation in rabbit platelet; assay type: cell-based; details: Oryctolagus cuniculus, read-out: Inhibition effect on collagen-induced aggregation in rabbit platelet
Text: as §1, §2, §3, §4, §5

[3] = concentration of the test compound solution 10^-4 mole
[4] = concentration of the test compound solution 10^-5 mole

CC(=O)Oc1ccccc1C(=O)O [Compound 17, Aspirin, reference compound]
inhibition at 10 µM [1]: 0% | inhibition at 100 µM [1]: 7% | inhibition at 1 µM [2]: 7% | inhibition at 10 µM [2]: 9% | inhibition at 100 µM [2]: 65%

CSc1nnnn1CCCOc1ccc2c(c1)CCC(=O)N2 [Compound 18, 6-[3-(5-Methylthiotetrazol-1-yl)propoxy]-3,4-dihydrocarbostyril, reference compound]
inhibition at 100 µM [1, 3]: 0% | inhibition at 100 µM [2, 3]: 67.4% | inhibition at 10 µM [2, 4]: 13.3%

CSc1nnn(CCCOc2ccc3c(c2)CCC(=O)N3)n1 [Compound 19, 6-[3-(5-Methylthiotetrazol-2-yl)propoxy]-3,4-dihydrocarbostyril, reference compound]
inhibition at 100 µM [1, 3]: 2.3% | inhibition at 100 µM [2, 3]: 73.4% | inhibition at 10 µM [2, 4]: 1.3%

O=C1CCc2cc(OCCCn3cnnn3)ccc2N1 [Compound 20, 6-[3-(Tetrazol-1-yl)propoxy]-3,4-dihydrocarbostyril, reference compound]
inhibition at 100 µM [1, 3]: 4.3% | inhibition at 100 µM [2, 3]: 77.4% | inhibition at 10 µM [2, 4]: 0%

O=C1CCc2c(cccc2OCCN2CCCCC2)N1 [Compound 21, 5-(2-Piperidinoethoxy)-3,4-dihydrocarbostyril, reference compound]
inhibition at 100 µM [1, 3]: 18% | inhibition at 100 µM [2, 3]: 25%

O=C1CCc2c(cccc2OCCN2CCOCC2)N1 [Compound 22, 5-(2-Morpholinoethoxy)-3,4-dihydrocarbostyril, reference compound]
inhibition at 100 µM [1, 3]: 13% | inhibition at 100 µM [2, 3]: 23%

O=C1CCc2c(cccc2OCCCN2CCCCC2)N1 [Compound 23, 5-(3-Piperidinopropoxy)-3,4-dihydrocarbostyril, reference compound]
inhibition at 100 µM [1, 3]: 15% | inhibition at 100 µM [2, 3]: 27%

O=C1CCc2cc(OCCN3CCOCC3)ccc2N1 [Compound 24, 6-(2-Morpholinoethoxy)-3,4-dihydrocarbostyril, reference compound]
inhibition at 100 µM [1, 3]: 17% | inhibition at 100 µM [2, 3]: 31%

O=C1CCc2ccc(OCCCN3CCCCC3)cc2N1 [Compound 25, 7-(3-Piperidinopropoxy)-3,4-dihydrocarbostyril, reference compound]
inhibition at 100 µM [1, 3]: 12% | inhibition at 100 µM [2, 3]: 18%

CC(COc1cccc2c1NC(=O)CC2)N1CCCCC1 (centres unmarked) [Compound 26, 8-(2-Piperidinopropoxy)-3,4-dihydrocarbostyril, reference compound]
inhibition at 100 µM [1, 3]: 14% | inhibition at 100 µM [2, 3]: 12%
